The values that follow come from ChEMBL document CHEMBL1909046, “DrugMatrix in vitro pharmacology data”.

For test [1], the target named is Beta-3 adrenergic receptor (Homo sapiens, UniProt P13945). In words: DRUGMATRIX: Adrenergic beta3 radioligand binding (ligand: [125I] Cyanopindolol). Type of test: cell membranes, HEK293, Membrane. To be noted: Not Active = under 50% inhibition at 10 µM; for Ki: read-out: Ki.
A further test deals with T1, B2 bradykinin receptor (Homo sapiens, UniProt P30411).
T1 sequence (P30411 whole entry): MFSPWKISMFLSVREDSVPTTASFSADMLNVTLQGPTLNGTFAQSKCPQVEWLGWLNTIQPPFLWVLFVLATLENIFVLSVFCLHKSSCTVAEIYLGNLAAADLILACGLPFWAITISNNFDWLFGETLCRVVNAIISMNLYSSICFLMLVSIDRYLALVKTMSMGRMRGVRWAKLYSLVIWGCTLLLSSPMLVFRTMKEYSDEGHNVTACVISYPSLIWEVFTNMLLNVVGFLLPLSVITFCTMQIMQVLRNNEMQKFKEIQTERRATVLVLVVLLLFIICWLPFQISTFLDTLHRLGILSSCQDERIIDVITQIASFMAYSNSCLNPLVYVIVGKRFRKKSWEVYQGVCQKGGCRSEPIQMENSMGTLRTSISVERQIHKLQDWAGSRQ
The class given is cell membranes, Membrane. To be noted: chem-1.

The next test has as its target T2, Calcitonin receptor (Homo sapiens, UniProt P30988). Also: in other assays of this panel Not Active means under 50% inhibition at 10 µM.
T2 sequence (P30988 whole entry): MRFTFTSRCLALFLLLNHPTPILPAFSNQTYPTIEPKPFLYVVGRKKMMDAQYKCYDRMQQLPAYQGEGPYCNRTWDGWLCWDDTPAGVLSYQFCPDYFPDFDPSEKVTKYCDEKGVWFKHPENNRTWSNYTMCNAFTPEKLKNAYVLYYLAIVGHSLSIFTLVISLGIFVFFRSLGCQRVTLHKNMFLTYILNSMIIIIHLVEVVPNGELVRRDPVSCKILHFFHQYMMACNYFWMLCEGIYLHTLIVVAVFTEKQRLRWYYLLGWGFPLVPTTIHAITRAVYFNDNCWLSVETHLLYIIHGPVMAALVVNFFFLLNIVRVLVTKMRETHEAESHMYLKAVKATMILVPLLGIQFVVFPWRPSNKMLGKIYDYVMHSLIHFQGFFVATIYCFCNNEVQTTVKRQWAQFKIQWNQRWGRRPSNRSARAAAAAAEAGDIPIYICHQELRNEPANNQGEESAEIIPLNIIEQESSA
Type of test: cell membranes, Membrane. To be noted: t47d.

Test [2] concerns the target T3, C-X-C chemokine receptor type 2 (Homo sapiens, UniProt P25025). Also: in other assays of this panel Not Active means under 50% inhibition at 10 µM.
T3 sequence (P25025 whole entry): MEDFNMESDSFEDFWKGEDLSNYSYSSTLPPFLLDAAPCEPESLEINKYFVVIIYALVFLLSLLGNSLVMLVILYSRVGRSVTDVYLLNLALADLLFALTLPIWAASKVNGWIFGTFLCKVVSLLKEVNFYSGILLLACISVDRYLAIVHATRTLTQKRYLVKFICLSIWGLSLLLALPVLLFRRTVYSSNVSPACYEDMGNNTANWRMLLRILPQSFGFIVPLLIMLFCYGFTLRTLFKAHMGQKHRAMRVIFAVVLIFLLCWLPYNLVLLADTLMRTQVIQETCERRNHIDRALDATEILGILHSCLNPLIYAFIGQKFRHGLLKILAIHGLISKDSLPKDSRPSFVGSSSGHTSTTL
Type of test: cell membranes, Membrane. To be noted: cho-k1.

Another test concerns the target D(3) dopamine receptor (Homo sapiens, UniProt P35462). The test can be described thus: DRUGMATRIX: Dopamine D3 radioligand binding (ligand: [3H] Spiperone). The class given is cell membranes, CHO, Membrane. To be noted: for Ki: read-out: Ki.
In the next test the target is T4, D(4) dopamine receptor (Homo sapiens, UniProt P21917).
T4 sequence (P21917 whole entry): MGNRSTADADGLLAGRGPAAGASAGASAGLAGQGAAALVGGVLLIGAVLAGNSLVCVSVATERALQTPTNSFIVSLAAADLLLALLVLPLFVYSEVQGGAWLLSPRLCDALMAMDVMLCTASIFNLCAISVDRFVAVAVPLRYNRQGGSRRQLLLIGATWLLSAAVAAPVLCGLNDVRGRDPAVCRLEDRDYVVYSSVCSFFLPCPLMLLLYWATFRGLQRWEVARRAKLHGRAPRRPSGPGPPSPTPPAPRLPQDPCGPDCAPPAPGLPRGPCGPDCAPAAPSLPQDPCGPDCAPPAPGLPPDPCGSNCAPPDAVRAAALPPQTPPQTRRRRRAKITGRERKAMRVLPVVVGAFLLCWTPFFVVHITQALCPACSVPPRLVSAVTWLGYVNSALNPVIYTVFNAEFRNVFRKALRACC
The test can be described thus: DRUGMATRIX: Dopamine D4.2 radioligand binding (ligand: [3H] Spiperone). The class given is cell membranes, CHO-K1, Membrane. To be noted: cho-k1; Not Active = under 50% inhibition at 10 µM.

Test [3] is described as follows: DRUGMATRIX: Glutamate, NMDA, Phencyclidine radioligand binding (ligand: [3H] TCP). The class given is cell membranes, Rattus norvegicus, Wistar, Cerebral cortex, Membrane. Conditions: Not Active = under 50% inhibition at 10 µM.

Structures are written as SMILES.

Sequence of D(3) dopamine receptor (P35462 whole entry): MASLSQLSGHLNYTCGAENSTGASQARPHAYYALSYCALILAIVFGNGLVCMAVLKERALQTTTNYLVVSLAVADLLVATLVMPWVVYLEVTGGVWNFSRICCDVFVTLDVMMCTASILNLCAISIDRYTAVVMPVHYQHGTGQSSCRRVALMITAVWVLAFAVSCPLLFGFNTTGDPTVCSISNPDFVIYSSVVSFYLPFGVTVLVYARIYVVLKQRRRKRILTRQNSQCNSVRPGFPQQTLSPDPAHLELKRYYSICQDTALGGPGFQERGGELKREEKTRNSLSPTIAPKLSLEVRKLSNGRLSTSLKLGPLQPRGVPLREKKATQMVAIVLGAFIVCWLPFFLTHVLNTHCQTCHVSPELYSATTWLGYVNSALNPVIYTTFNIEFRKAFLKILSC
Sequence of Beta-3 adrenergic receptor (P13945 whole entry): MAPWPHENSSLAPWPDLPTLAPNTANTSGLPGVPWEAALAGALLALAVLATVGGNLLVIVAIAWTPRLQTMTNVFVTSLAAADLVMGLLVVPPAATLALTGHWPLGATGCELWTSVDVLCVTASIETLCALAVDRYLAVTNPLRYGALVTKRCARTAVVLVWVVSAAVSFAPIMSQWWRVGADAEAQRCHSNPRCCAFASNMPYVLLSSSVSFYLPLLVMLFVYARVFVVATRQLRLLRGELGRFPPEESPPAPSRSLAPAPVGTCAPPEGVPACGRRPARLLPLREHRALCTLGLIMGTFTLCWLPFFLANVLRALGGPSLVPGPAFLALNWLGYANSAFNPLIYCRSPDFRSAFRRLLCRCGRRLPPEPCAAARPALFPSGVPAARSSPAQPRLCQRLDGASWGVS

With `CCOc1nc2cccc(C(=O)O)c2n1Cc1ccc(-c2ccccc2-c2nnn[nH]2)cc1`, the half-maximal inhibitory concentration (IC50) (in general, the concentration at which inhibition is half-maximal) in test [1] (read-out: IC50) was 4.3 µM; against B2 bradykinin receptor, “Not Active”; at Calcitonin receptor, “Not Active”; in test [2], “Not Active”; at D(3) dopamine receptor (cho), “Not Active”; on D(4) dopamine receptor, “Not Active”. The IC50 entry in test [3] is “Not Active”. For the same compound, the Ki (in general, a measure of affinity in units of concentration, obtained from inhibition or displacement) in test [1] was 3.2 µM; in test [3] it was “Not Active”.
In the case of `O=C(O)CCCc1cccs1`, the half-maximal inhibitory concentration (IC50) entry (in test [1] (hek293); against B2 bradykinin receptor; on Calcitonin receptor; in test [2]; on D(3) dopamine receptor (cho); at D(4) dopamine receptor) was “Not Active” in each case. For the same compound, in test [3], the IC50 result is reported as “Not Active”. Besides, the Ki entry in test [3] is “Not Active”.
Take `COc1ccccc1N`: the IC50 result (in test [1] (hek293); against B2 bradykinin receptor; on Calcitonin receptor; in test [2]; at D(3) dopamine receptor (cho); at D(4) dopamine receptor) was “Not Active” throughout. Also, in test [3], the IC50 result was “Not Active”. Moreover, the Ki entry in test [3] was “Not Active”.
As for `O=C(c1ccccc1F)N1CCC(Cc2ccccc2)CC1`, the IC50 result (in test [1] (hek293); at B2 bradykinin receptor; at Calcitonin receptor; in test [2]; at D(3) dopamine receptor (cho); at D(4) dopamine receptor) was “Not Active” in each case. For the same compound, the IC50 result in test [3] is on record as “Not Active”. In test [3], the Ki result is recorded as “Not Active”.
`Cc1c(O)cccc1C(=O)N[C@@H](CSc1ccccc1)[C@H](O)CN1C[C@H]2CCCC[C@H]2C[C@H]1C(=O)NC(C)(C)C`: the IC50 is 34.1 µM in test [1] (read-out: IC50); “Not Active” at B2 bradykinin receptor; “Not Active” on Calcitonin receptor; “Not Active” in test [2]; “Not Active” at D(3) dopamine receptor (cho); “Not Active” on D(4) dopamine receptor. For the same compound, the IC50 entry in test [3] is given as “Not Active”. Moreover, the Ki in test [1] was 25.6 µM; in test [3] it was “Not Active”.
Regarding `CC(O)COC[C@H]1O[C@@H]2O[C@H]3[C@H](O)[C@@H](O)[C@@H](O[C@H]4[C@H](O)[C@@H](O)[C@@H](O[C@H]5[C@H](O)[C@@H](O)[C@@H](O[C@H]6[C@H](O)[C@@H](O)[C@@H](O[C@H]7[C@H](O)[C@@H](O)[C@@H](O[C@H]8[C@H](O)[C@@H](O)[C@@H](O[C@H]1[C@H](O)[C@H]2O)O[C@@H]8COCC(C)O)O[C@@H]7COCC(C)O)O[C@@H]6COCC(C)O)O[C@@H]5COCC(C)O)O[C@@H]4COCC(C)O)O[C@@H]3COCC(C)O` (stereo partly drawn) [2-HYDROXYPROPYL-BETA-CYCLODEXTRIN], the IC50 result (in test [1] (hek293); on B2 bradykinin receptor; on Calcitonin receptor; in test [2]; at D(3) dopamine receptor (cho); at D(4) dopamine receptor) was “Not Active” in each case. For the same compound, the IC50 result in test [3] is “Not Active”. Besides, in test [3], the Ki result was “Not Active”.
Regarding `NC(=O)c1cccc(N)c1` [3-AMINOBENZAMIDE], the IC50 result (in test [1] (hek293); against B2 bradykinin receptor; at Calcitonin receptor; in test [2]; on D(3) dopamine receptor (cho); on D(4) dopamine receptor) was “Not Active” each time. For the same compound, the IC50 result in test [3] is reported as “Not Active”. The Ki result in test [3] is “Not Active”.
`C[C@H]1O[C@H](O[C@H]2[C@H](O)[C@@H](O)[C@@H](O[C@H]3[C@H](O)[C@@H](O)C(O)O[C@@H]3CO)O[C@@H]2CO)[C@H](O)[C@@H](O)[C@@H]1N[C@H]1C=C(CO)[C@@H](O)[C@H](O)[C@H]1O` (stereo partly specified) [ACARBOSE]: the 50% inhibitory concentration (IC50) entry (in test [1] (hek293); against B2 bradykinin receptor; on Calcitonin receptor; in test [2]; on D(3) dopamine receptor (cho); at D(4) dopamine receptor) was “Not Active” each time. Also, the IC50 entry in test [3] was “Not Active”. For the same compound, the Ki result in test [3] is on record as “Not Active”.
As to `CC[C@H]1[C@@H]2C[C@H]3[C@@H]4N(C)c5ccccc5[C@]45C[C@@H]([C@@H]2[C@H]5O)N3[C@@H]1O` [AJMALINE], the IC50 result (in test [1] (hek293); against B2 bradykinin receptor; at Calcitonin receptor; in test [2]; at D(3) dopamine receptor (cho); on D(4) dopamine receptor) was “Not Active” each time. The IC50 result in test [3] is recorded as “Not Active”. Moreover, the Ki result in test [3] is given as “Not Active”.
Turning to `NC12CC3CC(CC(C3)C1)C2` [AMANTADINE], the IC50 entry (in test [1] (hek293); at B2 bradykinin receptor; on Calcitonin receptor; in test [2]; at D(3) dopamine receptor (cho); on D(4) dopamine receptor) was “Not Active” each time. For the same compound, the IC50 in test [3] (read-out: IC50) came to 32 µM. In addition, in test [3] (read-out: Ki), the Ki was determined as 21.7 µM.
Turning to `NCCCNCCSP(=O)(O)O` [AMIFOSTINE], the IC50 result in test [1] (hek293) was “Not Active”; on B2 bradykinin receptor it was “Not Active”; at Calcitonin receptor it was “Not Active”; in test [2], “Not Active”; on D(3) dopamine receptor (read-out: IC50) it was 1.93 µM; at D(4) dopamine receptor, “Not Active”. Also, the IC50 result in test [3] is given as “Not Active”. Also, the values for the Ki (at D(3) dopamine receptor; in test [3]) were 0.655 µM and “Not Active”, respectively.
As to `CN(C)CCC=C1c2ccccc2CCc2ccccc21` [AMITRIPTYLINE], the IC50 entry is “Not Active” in test [1] (hek293); “Not Active” against B2 bradykinin receptor; “Not Active” at Calcitonin receptor; “Not Active” in test [2]; 0.182 µM on D(3) dopamine receptor (read-out: IC50); “Not Active” on D(4) dopamine receptor. Further, the IC50 result in test [3] is listed as “Not Active”. Besides, the Ki is 0.062 µM at D(3) dopamine receptor and “Not Active” in test [3].
As for `CC(=O)Oc1ccccc1C(=O)O` [ASPIRIN], the IC50 entry (in test [1] (hek293); against B2 bradykinin receptor; at Calcitonin receptor; in test [2]; at D(3) dopamine receptor (cho); on D(4) dopamine receptor) was “Not Active” in each case. Also, the IC50 entry in test [3] is “Not Active”. Further, the Ki entry in test [3] is listed as “Not Active”.
`CC(C)c1c(C(=O)Nc2ccccc2)c(-c2ccccc2)c(-c2ccc(F)cc2)n1CC[C@@H](O)C[C@@H](O)CC(=O)O` [ATORVASTATIN]: the half-inhibitory concentration (IC50) entry (in test [1] (hek293); on B2 bradykinin receptor; on Calcitonin receptor; in test [2]; on D(3) dopamine receptor (cho); at D(4) dopamine receptor) was “Not Active” throughout. Moreover, the IC50 entry in test [3] is recorded as “Not Active”. For the same compound, the Ki entry in test [3] is given as “Not Active”.
On to `CC(=O)OC[C@H]1O[C@@H](n2ncc(=O)[nH]c2=O)[C@H](OC(C)=O)[C@@H]1OC(C)=O` [AZARIBINE], for which the IC50 result (in test [1] (hek293); against B2 bradykinin receptor; at Calcitonin receptor; in test [2]; on D(3) dopamine receptor (cho); at D(4) dopamine receptor) was “Not Active” each time. The IC50 entry in test [3] is “Not Active”. Moreover, the Ki result in test [3] was “Not Active”.
In the case of `N=C(N)c1ccc(OCCCCCOc2ccc(C(=N)N)cc2)cc1` [PENTAMIDINE], the IC50 result (in test [1] (hek293); against B2 bradykinin receptor; on Calcitonin receptor; in test [2]; at D(4) dopamine receptor; in test [3]) was “Not Active” each time. Further, the Ki entry in test [3] is reported as “Not Active”.
